Structures are written as SMILES.

This test has as its target T1, human metabotropic glutamate 7 receptor (hmGlu7) (Homo sapiens, UniProt Q14831).
T1 construct: expressed in transfected cells
The experiment in a line: mGlu7 assay on HEK-expressing human mGlu7: fluorescent cell based-Ca2+ mobilization assay (FLIPR), inhibition of EC80 L-AP4 response. The conditions noted are these: HEK-293 cells expressing hmGlu7, EC80 L-AP4; mean of at least three independent experiments in duplicate; read-out: Ca^2+ Flux (mean IC50). The text has this: mGlu7 Assay on HEK-Expressing Human mGLU7
The cDNA encoding the human metabotropic glutamate 7 receptor (hmGlu7), (accession number NM_181874.2, NCBI Nucleotide database browser), was subcloned into an expression vector containing also the hygromycin resistance gene. In parallel, the cDNA encoding a G protein allowing redirection of the activation signal to intracellular calcium flux was subcloned into a different expression vector containing also the Puromycin resistance gene. Transfection of both these vectors into HEK293 cells with PolyFect reagent (Qiagen) according to supplier's protocol, and hygromycin and puromycin treatment allowed selection of antibiotic resistant cells which had integrated stably one or more copies of the plasmids. Positive cellular clones expressing hmGlu7 were identified in a functional assay measuring changes in calcium fluxes in response to glutamate and L-AP4 or known mGlu7 orthosteric antagonists.
HEK-293 cells expressing hmGlu7 were maintained in media containing DMEM, Fetal Bovine Serum (10%), GlutaMAX™ (2 mM), penicillin (100 units/mL), streptomycin (100 μg/mL), geneticin (100 μg/mL) and hygromycin-B (40 μg/mL) and puromycin (1 μg/mL) at 37° C. with 5% CO2 in a humidified atmosphere.
Human mGlu7 HEK-293 cells were plated out 24 hours prior to a fluorescent cell-based calcium mobilization assay using FLIPR^384 assay (Molecular Device, Sunnyvale, CA, USA) in black-walled, clear-bottomed, poly-L-ornithine-coated 384-well plates at a density of 25,000 cells/well in a glutamine/glutamate free DMEM medium containing fetal bovine serum (10%), penicillin (100 units/mL), streptomycin (100 μg/mL) and doxycyline (1 μg/ml) at 37° C. with 5% CO2 in a humidified atmosphere.
On the day of the assay, the medium was aspirated and the cells were loaded with a 3 μM solution of Fluo4-AM (LuBioScience, Lucerne, Switzerland) in 0.03% pluronic acid. After 1 hour at 37° C./5% CO2, the non incorporated dye was removed by washing cell plate with the assay buffer. All assays were performed in a pH 7.4 buffered-Solution containing 20 mM HEPES, 143 mM NaCl, 6 mM KCl, 1 mM MgSO4, 1 mM CaCl2, 0.125 mM sulfinpyrazone and 0.1% glucose.
After 10 s of basal fluorescence recording, various concentrations of the compounds of the invention were added to the cells. Changes in fluorescence levels were first monitored for 180 s in order to detect any agonist activity of the compounds. Then the cells were stimulated by an EC80 L-AP4 concentration for an additional 110 s in order to measure inhibiting activities of the compounds of the invention. EC80 L-AP4 concentration is the concentration giving 80% of the maximal glutamate response.
The concentration-response curves of L-AP4 or representative compounds of the present invention were generated using the Prism GraphPad software (Graph Pad Inc, San Diego, USA). The curves were fitted to a four-parameter logistic equation:
(Y=Bottom+(Top−Bottom)/(1+10^((Log IC50−X)*Hill Slope)
allowing determination of IC50 values.
The Table 3 below represents the mean IC50 obtained from at least three independent experiments of selected molecules performed in duplicate.
In general terms: Calcium assays in cells follow changes in intracellular calcium, usually with a dye or a luminescent sensor.

T1 sequence (Q14831 35-922 isoform Q14831-2 limits assumed): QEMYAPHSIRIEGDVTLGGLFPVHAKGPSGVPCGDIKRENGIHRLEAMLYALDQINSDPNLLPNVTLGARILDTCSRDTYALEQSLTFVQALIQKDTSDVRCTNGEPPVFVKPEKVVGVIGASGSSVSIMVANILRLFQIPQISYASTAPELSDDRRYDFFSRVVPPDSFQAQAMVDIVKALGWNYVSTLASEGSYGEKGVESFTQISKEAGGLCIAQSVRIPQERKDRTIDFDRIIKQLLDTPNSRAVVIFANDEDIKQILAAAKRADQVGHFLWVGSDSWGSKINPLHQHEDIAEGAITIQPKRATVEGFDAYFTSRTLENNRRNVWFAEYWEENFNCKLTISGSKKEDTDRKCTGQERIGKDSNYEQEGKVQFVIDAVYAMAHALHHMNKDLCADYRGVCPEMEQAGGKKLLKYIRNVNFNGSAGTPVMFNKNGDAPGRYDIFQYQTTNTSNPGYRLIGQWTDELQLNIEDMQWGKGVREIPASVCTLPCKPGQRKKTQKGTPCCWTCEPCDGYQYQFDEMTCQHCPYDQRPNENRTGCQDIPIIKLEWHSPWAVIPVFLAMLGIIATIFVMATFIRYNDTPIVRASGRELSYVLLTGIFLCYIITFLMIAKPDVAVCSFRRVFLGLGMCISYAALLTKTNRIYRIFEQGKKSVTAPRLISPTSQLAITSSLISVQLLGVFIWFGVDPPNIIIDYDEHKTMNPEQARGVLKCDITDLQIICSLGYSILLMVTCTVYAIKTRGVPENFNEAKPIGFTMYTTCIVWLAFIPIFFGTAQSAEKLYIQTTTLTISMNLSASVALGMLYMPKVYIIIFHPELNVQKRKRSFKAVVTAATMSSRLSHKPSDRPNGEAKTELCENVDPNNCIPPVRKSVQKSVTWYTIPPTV

Consider `Cc1c(OC2CC2)cccc1-c1c(C)c2cnn(-c3ncccn3)c(=O)n2c1C` [1-27], for which the IC50 (commonly the concentration at which inhibition is half-maximal) was under 100 nM.

Take `Cc1c(-c2cccc(OC3CC3)c2)cc2cnn(-c3ccccn3)c(=O)n12` [1-83]: the IC50 fell in the range of 1000 to 10000 nM.

On to `Cc1c(OC2CC2)cccc1-c1c(C)c2cnn(-c3ccccn3)c(=O)n2c1C` [1-8], for which the 50% inhibitory concentration (IC50) was in the range of 100 to 1000 nM.

On to `COc1ccc(F)c(-c2c(C)c3cnn(-c4ncccn4)c(=O)n3c2C)c1` [1-127], for which the IC50 is under 100 nM.

Take `Cc1c(-c2cccc(OC3CC3)c2F)cc2cnn(-c3ccccn3)c(=O)n12` [1-109]: the IC50 is under 100 nM.

Turning to `COc1ccc(F)c(-c2c(C)c3cnn(-c4ccccn4)c(=O)n3c2C)c1` [1-126], the IC50 fell in the range of 100 to 1000 nM.

With `COc1ccc(F)c(-c2cc3cnn(-c4ccccn4)c(=O)n3c2C)c1` [1-102], the half-inhibitory concentration (IC50) is under 100 nM.

For the molecule `Cc1c(OC2CC2)cccc1-c1cc2cnn(-c3ncccn3)c(=O)n2c1C` [1-85], the IC50 lay in the range of 100 to 1000 nM.

For `Cc1c(-c2cccc(F)c2Cl)c(C)n2c(=O)n(-c3ncccn3)ncc12` [1-123], the IC50 was under 100 nM.

For the molecule `Cc1c(OC2CC2)cccc1-c1c(C)c2cnn(-c3ccc(F)cn3)c(=O)n2c1C` [1-54], the IC50 is 100 to 1000 nM.

With `Cc1c(-c2cccc(OC3CC3)c2)c(C)n2c(=O)n(-c3ncc(Cl)cn3)ncc12` [1-48], the IC50 was in the range of 100 to 1000 nM.

In the case of `COc1cccc(-c2c(C)c3cnn(-c4ncccn4)c(=O)n3c2C)c1F` [1-133], the IC50 fell in the range of 100 to 1000 nM.

With `COc1cccc(-c2cc3cnn(-c4ncccn4)c(=O)n3c2C)c1F` [1-112], the IC50 lay in the range of 100 to 1000 nM.

Consider `COCCNc1ccc(-n2ncc3c(C)c(-c4cccc(N5CCC5)c4)c(C)n3c2=O)nc1` [1-35], for which the IC50 fell in the range of 100 to 1000 nM.

For `Cc1c(-c2cc3cnn(-c4ncccn4)c(=O)n3c2C)ccnc1OC1CC1` [1-145], the IC50 is under 100 nM.

As for `Cc1c(-c2cccc3c2CC(=O)N3C)cc2cnn(-c3ccccn3)c(=O)n12` [1-78], the IC50 is under 100 nM.

Consider `Cc1c(-c2cccc3c2CCN3C)c(C)n2c(=O)n(-c3ncccn3)ncc12` [1-87], for which the IC50 lay in the range of 100 to 1000 nM.

As for `Cc1c(-c2cccc(N3CCC3)c2)c(C)n2c(=O)n(-c3ccccn3)ncc12` [1-3, 7-[3-(azetidin-1-yl)phenyl]-6,8-dimethyl-3-(2-pyridyl)pyrrolo[1,2-d][1,2,4]triazin-4-one], the IC50 is under 100 nM.

On to `Cc1c(-c2ccnc(OC(F)F)c2)cc2cnn(-c3ccccn3)c(=O)n12` [1-146], for which the IC50 fell in the range of 100 to 1000 nM.

For the molecule `Cc1c(-c2ccnc3c2CCN3C)cc2cnn(-c3ncccn3)c(=O)n12` [1-119], the IC50 lay in the range of 100 to 1000 nM.

`Cc1c(-c2cccc3c2CCCN3C)cc2cnn(-c3ncccn3)c(=O)n12` [1-89]: the IC50 is under 100 nM.

For `Cc1c(-c2cccc3c2CCN3C2CC2)cc2cnn(-c3ncccn3)c(=O)n12` [1-67], the IC50 is 100 to 1000 nM.

With `COc1cccc(-c2cc3cnn(-c4ncccn4)c(=O)n3c2C)c1Cl` [1-77], the IC50 is under 100 nM.

For the molecule `Cc1c(-c2cccc(N3CCC3)c2)c(C)n2c(=O)n(-c3ccc(N4CCOCC4)nc3)ncc12` [1-32], the IC50 fell in the range of 100 to 1000 nM.

Take `Cc1c(-c2cccc(N3CCC3)c2)c(C)n2c(=O)n(-c3ccc(NC(=O)OC(C)(C)C)cn3)ncc12` [1-31]: the IC50 fell in the range of 100 to 1000 nM.

Turning to `Cc1c(OC(F)F)cccc1-c1cc2cnn(-c3ccccn3)c(=O)n2c1C` [1-71], the IC50 is under 100 nM.

Consider `Cc1c(-c2cccc(OC3CC3)c2Cl)cc2cnn(-c3ncccn3)c(=O)n12` [1-110], for which the IC50 is under 100 nM.

For the molecule `Cc1c(-c2cccc(OC3CC3)c2)c(C)n2c(=O)n(-c3ccccn3)ncc12` [1-20], the IC50 was under 100 nM.

On to `COc1ccc(F)c(-c2cc3cnn(-c4ncccn4)c(=O)n3c2C)c1` [1-105], for which the half-maximal inhibitory concentration (IC50) lay in the range of 100 to 1000 nM.

`Cc1c(-c2cccc(N3CCC3)c2)c(C)n2c(=O)n(-c3ccncc3)ncc12` [1-6]: the IC50 was 100 to 1000 nM.

As for `Cc1c(-c2cccc3c2CCCN3C)c(C)n2c(=O)n(-c3ncccn3)ncc12` [1-86], the IC50 lay in the range of 100 to 1000 nM.

Take `Cc1c(-c2cccc(OC3CC3)c2Cl)cc2cnn(-c3ccccn3)c(=O)n12` [1-104]: the IC50 was under 100 nM.

For the origin of these results see US20260184715A1, “NOVEL PYRROLO[1,2-d][1,2,4] TRIAZINONE DERIVATIVES AS NEGATIVE ALLOSTERIC MODULATORS OF MGLU7 RECEPTORS” (Neurosterix Pharma Sarl., priority 2022, published 2026).
